Experiments:
Assay type in all cases: in vivo
[1] = tested on: common mosquitoes (Culex pipiens pallens); assay: Biological Test 11: mosquitoes in cup over treated aluminum plate without direct contact, mortality; conditions: 24 h
Procedure: After 0.64 ml of a 0.05 (w/v) % acetone solution of the present compounds was dropped into an aluminum plate (bottom diameter: 7 cm), acetone was air-dried. Ten female common mosquitoes (Culex pipiens pallens) were left in a polyethylene cup (diameter: 9 cm; depth: 4.5 cm) and the cup was sealed with a 16-mesh nylon net to prevent direct contact of the mosquitoes with the compound. The cup was placed upside down on the aluminum plate at 25° C. for 120 minutes. The cup was then removed from the aluminum plate, and water and feed were given to the mosquitoes. After 24 hours, the mortality was examined (two replicate).

[2] = tested on: houseflies (Musca domestica); assay: Biological Test 4: mortality of female houseflies low sensitive to pyrethroids, treated filter paper; conditions: 24 h
Procedure: (§1) Filter paper of 5.5 cm in diameter was laid in the bottom of a polyethylene cup (diameter: 5.5 cm). After 0.7 ml of a 500 ppm aqueous emulsion obtained by diluting each emulsifiable concentrate prepared according to the formulation example 1 was dropped on the filter paper and approximately 30 mg of sucrose as bait was uniformly scattered. Ten female houseflies (Musca domestica), which were low sensitive to pyrethroids, were left in the cup with a cover. After one day, the mortality was examined.

[3] = tested on: German cockroaches (Blattela germanica); assay: Biological Test 15: repellency, treated sheet shelter; conditions: 1.0 ml of 0.1% by weight acetone solution on filter paper; 24 hours
Procedure: The obtained sheet was folded as to be a triangular tube where one side of the triangle-shaped base was 3 cm.
In a plastic cup (650 ml volume), said triangular tube was placed as a shelter (cockroach hiding residence). Ten adult German cockroaches (Blattela germanica) were placed in said plastic cup together with food and water and then observed the number of cockroaches in the shelter 24 hours later (two replicate). Repellency (%) was calculated by the following formula: [formula]

[4] = tested on: German cockroaches (Blattella germanica); assay: Biological Test 5: mortality of male German cockroaches low sensitive to pyrethroids, treated filter paper; conditions: 144 h
Procedure: as §1, with “Two male German cockroaches (Blattella germanica),” for “Ten female houseflies (Musca domestica),”, “six days,” for “one day,”

[5] = tested on: houseflies (Musca domestica); assay: Biological Test 16: topical application of compound (1) with piperonyl butoxide, mortality; conditions: after 24 hours
Procedure: The combination rate of piperonyl butoxide to the present compound was 0, 2, 4, 8 and 16 times. The mixture was dissolved in acetone. The acetone solution (0.5 μL) was applied to 10 female houseflies (Musca domestica) at the back thoracic region. After 24 hours, the number of dead insects was observed (2 repetition) and mortality was calculated.

[6] = tested on: southern corn rootworm (Diabrotica undecimpunctata howardi); assay: Biological Test 3: mortality of hatched larvae and eggs; conditions: 192 h, read-out: mortality of the hatched larvae and eggs
Text: Filter paper of 5.5 cm in diameter was laid in the bottom of a polyethylene cup (diameter: 5.5 cm). […] After 8 days, the mortality of the hatched larvae and eggs was examined.

[7] = tested on: webbing clothes moth (Tineola bisselliella); assay: Biological Test 14: treated filter paper in cardboard box, percent moribund, fabric damage and persistence; conditions: 36 mg on filter paper
Procedure: A filter paper (3.2 cm×3.2 cm in size) treated with 36 mg of each of the present compounds and two wool muslin fabrics (25 cm×25 cm in size) were hung down at the upper part of a corrugated cardboard box (29 cm×29 cm×29 cm in size). After standing at 25° C. and a humidity of 60% for 1 week, two tea-strainer balls holding 7 to 10 middle instar larvae of webbing clothes moth (Tineola bisselliella) and one piece of wool muslin cloth (2 cm×2 cm in size) were hung down at the upper part of the box. The box was closed with a lid. After one week, the box was opened, and the percent moribund and the degree of damage of the wool muslin cloth by the moths were examined. The same tests was repeated 2 weeks, 3 weeks and 5 weeks after the treatment to examine the persistance of the present compound. The degree of damage was represented by "-" in no damage, "+" in slight damage, "++" in heavy damage and "+++" in severe damage.

[8] = tested on: brown planthopper (Nilaparvata lugens); assay: Biological Test 2: mortality of larvae on dipped rice plant stalk; conditions: 144 h, read-out: mortality of the larvae
Procedure: A stalk of a rice plant was dipped for one minute in a 500 ppm aqueous emulsion obtained by diluting each emulsifiable concentrate of the present compounds prepared according to the formulation example 1. The rice plant stalk was air-dried and placed in a polyethylene cup (diameter: 5.5 cm) where filter paper (diameter: 5.5 cm) impregnated with 1 ml of water was put. Approximately 30 larvae of brown planthopper (Nilaparvata lugens) were put in the polyethylene cup. After 6 days, the mortality of the larvae was examined.

[9] = tested on: common mosquitoes (Culex pipiens pallens); assay: Biological Test 7: knock-down of mosquitoes by sprayed oil solution; conditions: 0.7 ml of 0.1% oil solution sprayed in 0.34 m^3 chamber; after 15 minutes
Procedure: Ten female common mosquitoes (Culex pipiens pallens) were left in a glass chamber (70 cm×70 cm×70 cm: 0.34 m^3). 0.7 ml of 0.1% oil solution prepared for each of the present compounds according to the formulation example 7 was sprayed with a spray gun at 0.8 atmospheric pressure. After 15 minutes, the rate of knocked-down mosquitoes was examined.

[10] = tested on: common mosquitoes (Culex pipiens pallens); assay: Biological Test 8: knock-down of mosquitoes by mosquito-coil; conditions: 1.0 g of 0.3% mosquito-coil in 0.34 m^3 chamber; after 15 minutes
Procedure: Mosquito-coil containing the present compound in an amount of 0.3% was prepared according to the formulation example 10 for the present compounds. Ten female common mosquitoes (Culex pipiens pallens) were left in a glass chamber (70 cm×70 cm×70 cm: 0.34 m^3) and 1.0 g of 0.3% mosquito-coil having both ends lit was placed in the glass chamber. After 15 minutes, the rate of knocked-down mosquitoes was examined.

[11] = tested on: webbing clothes moth (Tineola bisselliella); assay: Biological Test 13: volatile agent in cup, mortality and fabric damage; conditions: volatile agent (100 μg on filter paper), 950 cm^3 cup, 25° C., 1 week
Procedure: A wool muslin fabric (2 cm×2 cm in size) was placed on the bottom of a polyethylene cup (bottom diameter: 10 cm, opening part diameter: 12.5 cm, height: 9.5 cm, volume: 950 cm^3). Ten middle instar larvae of webbing clothes moth (Tineola bisselliella) were put in the cup and each of the volatile agents prepared according to the formulation example 14 was hung from the cap in the interior of the cup. After standing at 25° C. for 1 week, the cup was opened, and the mortality and the degree of damage of the wool muslin fabric by the moths were examined (two replicate).

## Cc1ccc(COC(=O)[C@@H]2[C@H](/C=C(\Cl)C(F)(F)F)C2(C)C)o1 (relative stereo) [Compound (1), 5-methyl-2-furfuryl (1RS,cis)-3-(Z-2-chloro-3,3,3-trifluoroprop-1-enyl)-2,2-dimethylcyclopropanecarboxylate]
[1]
  mortality at 500 µg/mL: 100%
[2]
  mortality at 500 ppm: 100%
[3]
  Repellency (%): 100%
[4]
  mortality at 500 ppm: 100%
[5]; compound (1) 0.5 μg/female, piperonyl butoxide 0
  Mortality (%): 30%
[5]; compound (1) 0.5 + piperonyl butoxide 2.0 μg/female
  Mortality (%): 100%
[5]; compound (1) 0.5 + piperonyl butoxide 4.0 μg/female
  Mortality (%): 100%
[5]; compound (1) 0.5 + piperonyl butoxide 8.0 μg/female
  Mortality (%): 100%
[6]
  mortality at 50 ppm: 100%
[7]; After 1 week
  degree of damage: -
[7]; After 2 weeks
  degree of damage: -
[7]; After 3 weeks
  degree of damage: -
[7]; After 5 weeks
  degree of damage: -
[8]
  mortality at 500 ppm: ≥ 90%
[9]
  rate of knocked-down mosquitoes: ≥ 90%
[10]
  rate of knocked-down mosquitoes: 100%
[11]
  degree of damage of the wool muslin fabric: no damage
[11]; 10080 min
  mortality: 100%

Reference: US6048892A, “Ester compound pesticide containing thereof” (Sumitomo Chemical Company, Limited, priority 1999, dated 2000)
